Reference: patent US20260062422A1 (Halda Therapeutics OpCo, Inc., priority 2022, published 2026)

Columns and labels:
[1] = test system: T-Rex 293 cell line SC3 cells having increased expression of androgen receptor protein due to exposure to doxycycline; assay: Cellular growth inhibition, T-Rex 293 SC3 cells with doxycycline (androgen receptor induced), CellTiter-Glo; type: cell-based; conditions: T-Rex 293 SC3 cells with 10 ng/mL doxycycline (increased androgen receptor expression)
Summary of the method: (§1)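 Doxycycline-inducible androgen receptor T-Rex 293 clone SC3, seeded at 2500/well in phenol red-free DMEM with 10% charcoal-dextran FBS, without doxycycline or with 10 ng/mL to induce receptor. Compound added after 24 h (0.5% DMSO), 72 h at 37 °C; CellTiter-Glo 2.0 luminescence, GI50 by four-parameter fit.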

[2] = test system: T-Rex 293 cell line SC3 cells lacking increased expression of androgen receptor protein; assay: Cellular growth inhibition, T-Rex 293 SC3 cells without doxycycline, CellTiter-Glo; type: cell-based; conditions: T-Rex 293 SC3 cells not exposed to doxycycline, CellTiter-Glo 2.0
Summary of the method: as §1

[3] = test system: VCaP cells; assay: Cellular growth inhibition assay for VCaP cells, CellTiter-Glo; type: cell-based, human; conditions: 72 hours treatment, CellTiter-Glo 2.0
Summary of the method: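 GI50 values come from four-parameter curve fits of luminescence data normalized to a zero baseline. Compound, in medium with 0.5% DMSO, was added one day after plating and left for 72 h before CellTiter-Glo 2.0 addition.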

[4] = test system: T47D cells; assay: Cellular growth inhibition assay for T47D cells, CellTiter-Glo; type: cell-based, human; conditions: 72 hours treatment, CellTiter-Glo 2.0 cell viability
Summary of the method: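 Cells are plated at 3000/well and allowed 24 h before treatment. Test compound in medium containing 0.5% DMSO is then added, with DMSO-only wells as negative control, and plates are incubated 72 h at 37 °C. ATP luminescence (CellTiter-Glo 2.0) is then fitted to four parameters to derive GI50.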

Structure (SMILES)	GI50 ([1]; 72 h)	GI50 ([2]; 72 h)	GI50 ([3]; Homo sapiens, VCaP, 72 h)	GI50 ([4]; Homo sapiens, T47D, 72 h)	GI50 ([1]; 72 hours)	GI50 ([2]; 72 hours)	GI50 [3]	GI50 [4]
Cc1sc2c(c1C)C(c1ccc(N[C@H]3CC[C@H](CNc4ncc(C(=O)N[C@H]5C(C)(C)[C@H](Oc6ccc(C#N)c(Cl)c6)C5(C)C)cn4)CC3)cc1)=N[C@@H](Cc1ncco1)c1nnc(C)n1-2 [Compound I-649]	< 500 nM	< 500 nM	< 500 nM	< 500 nM				
Cc1sc2c(c1C)C(c1ccc(N3CCC4(CC3)CCN(c3ncc(C(=O)N[C@H]5C(C)(C)[C@H](Oc6ccc(C#N)c(Cl)c6)C5(C)C)cn3)C4)cc1)=NC(Cc1ncco1)c1nnc(C)n1-2 (stereo partly shown) [Compound I-643]	< 500 nM	< 500 nM	< 500 nM	< 500 nM				
Cc1sc2c(c1C)C(c1ccc(OC3CC4(CCN(c5ncc(C(=O)N[C@H]6C(C)(C)[C@H](Oc7ccc(C#N)c(Cl)c7)C6(C)C)cn5)CC4)C3)cc1)=NC(C(F)(F)F)c1nnc(C)n1-2 (stereo partly shown) [Compound I-601]					> 3000 nM	> 3000 nM	< 500 nM	> 3000 nM
Cc1sc2c(c1C)C(c1ccc(O[C@H]3CCC4(CCN(c5ncc(C(=O)N[C@H]6C(C)(C)[C@H](Oc7ccc(C#N)c(Cl)c7)C6(C)C)cn5)CC4)C3)cc1)=N[C@@H](Cc1ncco1)c1nnc(C)n1-2 [Compound I-173]	< 500 nM	> 3000 nM	< 500 nM	< 500 nM				
Cc1sc2c(c1C)C(c1ccc(CC3CC4(C3)CN(c3ncc(C(=O)N[C@H]5C(C)(C)[C@H](Oc6ccc(C#N)c(Cl)c6)C5(C)C)cn3)C4)cc1)=N[C@@H](Cc1ncco1)c1nnc(C)n1-2 [Compound I-151]	< 500 nM	< 500 nM	< 500 nM	< 500 nM				
Cc1sc2c(c1C)C(c1ccc(N3CC(C4CCCN(c5ncc(C(=O)N[C@H]6C(C)(C)[C@H](Oc7ccc(C#N)c(Cl)c7)C6(C)C)cn5)C4)C3)cc1)=N[C@@H](C)c1nnc(C)n1-2 (stereo partly shown) [Compound I-473]	< 500 nM		> 3000 nM			> 3000 nM		> 3000 nM
Cc1sc2c(c1C)C(c1ccc(CC3CCC4(C3)CN(c3ncc(C(=O)N[C@H]5C(C)(C)[C@H](Oc6ccc(C#N)c(Cl)c6)C5(C)C)cn3)CCO4)cc1)=N[C@@H](C)c1nnc(C)n1-2 (stereo partly shown) [Compound I-619]	< 500 nM	500 to 1500 nM	< 500 nM	< 500 nM				
Cc1sc2c(c1C)C(c1ccc(CCC[C@H]3CCCN(c4ncc(C(=O)N[C@H]5C(C)(C)[C@H](Oc6ccc(C#N)c(Cl)c6)C5(C)C)cn4)C3)cc1)=N[C@@H](C)c1nnc(C)n1-2 [Compound I-366]	< 500 nM	> 3000 nM	< 500 nM	> 3000 nM				
Cc1sc2c(c1C)C(c1ccc(CCCOC3CCN(c4ncc(C(=O)N[C@H]5C(C)(C)[C@H](Oc6ccc(C#N)c(Cl)c6)C5(C)C)cn4)CC3)cc1)=N[C@H](Cc1ccncc1)c1nnc(C)n1-2 [Compound I-216]	< 500 nM	> 3000 nM	< 500 nM	> 3000 nM				
Cc1sc2c(c1C)C(c1ccc(CCCC3CC4(C3)CN(c3ncc(C(=O)N[C@H]5C(C)(C)[C@H](Oc6ccc(C#N)c(Cl)c6)C5(C)C)cn3)C4)cc1)=N[C@@H](C)c1nnc(C)n1-2 [Compound I-365]	< 500 nM	> 3000 nM	< 500 nM	< 500 nM				
Cc1sc2c(c1C)C(c1ccc(O[C@H]3CO[C@@]4(CCCN(c5ncc(C(=O)N[C@H]6C(C)(C)[C@H](Oc7ccc(C#N)c(Cl)c7)C6(C)C)cn5)C4)C3)cc1)=N[C@@H](Cc1ncco1)c1nnc(C)n1-2 [Compound I-186]	< 500 nM	< 500 nM	< 500 nM	500 to 1500 nM				
Cc1sc2c(c1C)C(c1ccc(OC[C@H]3C[C@]4(CCCN(c5ncc(C(=O)N[C@H]6C(C)(C)[C@H](Oc7ccc(C#N)c(Cl)c7)C6(C)C)cn5)C4)C3)cc1)=N[C@@H](Cc1ncco1)c1nnc(C)n1-2 [Compound I-233]	< 500 nM	1500 to 3000 nM	500 to 1500 nM	< 500 nM				
Cc1sc2c(c1C)C(c1ccc([C@H]3C[C@@H](C[C@@H]4CCCN(c5ncc(C(=O)N[C@H]6C(C)(C)[C@H](Oc7ccc(C#N)c(Cl)c7)C6(C)C)cn5)C4)C3)cc1)=N[C@@H](Cc1ncco1)c1nnc(C)n1-2 [Compound I-400]	> 3000 nM	> 3000 nM	> 3000 nM	> 3000 nM				
